Data on 2 compounds can be found in patent publication US20080214800A1, “SIRT INHIBITORS THAT BIND TO NAD” (Elixir Pharmaceuticals, Inc., priority 2005, published 2008).

This assay has as its system HeLa cell. Put plainly: HeLa cell apoptosis assay, Cell Death Detection ELISA plus kit. More on the design: unit not given here. The assay is classed as cell-based. The procedure: The following exemplary compounds were evaluated for their effect on a HeLa cell apoptosis assay using the Cell Death Detection ELISA plus kit from Roche Applied Science.

For `Cn1c2c(c3cc(Cl)ccc31)C(C(N)=O)CCC2` (centres unmarked) [Compound 5], the “average (HeLa apoptosis assay)” value runs as follows: (dose 0.5) 1.00; (dose 2.5) 0.97; (dose 10) 1.07; (dose 25) 0.91.
For `Oc1ccc(/C=C/c2cc(O)cc(O)c2)cc1` [Resveratol] the same measures were 0.83, 0.84, 1.01 and 0.56.
